Measured values: US12240840B2, “Amide-substituted heterocyclic compounds for the treatment of conditions related to the modulation of IL-12, IL-23 and/or IFN-alpha” (BRISTOL-MYERS SQUIBB COMPANY, priority 2018, dated 2025)

System: IFNα-induced pSTAT5 (pY694) in CD3 positive cells of human whole blood
Assay: IFNα-Induced STAT Phosphorylation in Human Whole Blood
Assay type: cell-based
Settings: 1 h compound incubation, 1000 U/mL recombinant human IFNα A/D for 15 min, pSTAT5 in CD3 positive population, read-out: Human WB IFNα-Induced Stat Phosph. (IC50)
Outline: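 Read-out is median fluorescence intensity of pSTAT5 (pY694) in the CD3-positive gate, by flow cytometry after fix/lyse and permeabilization. Before that, whole human blood anticoagulated with EDTA or ACD-A received compound for an hour and 1000 U/mL IFNα A/D for 15 min.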

Row | IC50 [nM] | SMILES
1 | 3120 | [2H]C([2H])([2H])NC(=O)c1nnc(NC(=O)C2CC2)cc1Nc1cccc(-c2cnn(CCNC(C)=O)c2)c1OC [Example 563, 4-((3-(1-(2-acetamidoethyl)-1H-pyrazol-4-yl)-2-methoxyphenyl)amino)-6-(cyclopropanecarboxamido)-N-(methyl-d3)pyridazine-3-carboxamide]

Same assay, conditions: Homo sapiens, 1 h compound incubation, 1000 U/mL recombinant human IFNα A/D for 15 min, pSTAT5 in CD3 positive population, read-out: Human WB IFNα-Induced Stat Phosph. (IC50)

Row | IC50 [nM] | SMILES
2 | 200 | [2H]C([2H])([2H])NC(=O)c1nnc(Nc2ccc(C)nn2)cc1Nc1cccc(-c2cn(CCN3CCOCC3)nn2)c1OC [Example 424]
3 | > 10000 | [2H]C([2H])([2H])NC(=O)c1nnc(NC(=O)C2CC2)cc1Nc1cccc(-c2cnn(CCNC(=O)OC(C)(C)C)n2)c1OC [Example 431]
4 | 150 | [2H]C([2H])([2H])NC(=O)c1nnc(NC(=O)C2CC2)cc1Nc1cccc(-c2cc(C(=O)N3CCNCC3)n(C)n2)c1OC [Example 492]
5 | 190 | [2H]C([2H])([2H])NC(=O)c1nnc(NC(=O)C2CC2)cc1Nc1cccc(-c2cc(C(=O)N3CCC(OC)C3)n(C)n2)c1OC (stereo not drawn) [Example 522]
6 | 150 | [2H]C([2H])([2H])NC(=O)c1nnc(NC(=O)C2CC2)cc1Nc1cccc(-c2cc(C(=O)N3CCN(S(C)(=O)=O)CC3)n(C)n2)c1OC [Example 502]
7 | 40 | CCS(=O)(=O)N1CCN(C(=O)c2cnc(-c3cccc(Nc4cc(NC(=O)C5CC5)nnc4C(N)=O)c3OC)s2)CC1 [Example 402]
8 | 830 | [2H]C([2H])([2H])NC(=O)c1nnc(NC(=O)C2CC2)cc1Nc1cccc(-c2cnn(CCNC(=O)CC#N)c2)c1OC [Example 559]
9 | 60 | [2H]C([2H])([2H])NC(=O)c1nnc(NC(=O)C2CC2)cc1Nc1cc(F)cc(-c2cc(C(=O)N(C)C)n(C)n2)c1OC [Example 495]
10 | 170 | COc1c(Nc2cc(NC(=O)C3CC3)nnc2C(N)=O)cccc1-c1ncc(C(=O)N(C)C)o1 [Example 413]
11 | 40 | COc1c(Nc2cc(NC(=O)C3CC3)nnc2C(N)=O)cccc1-c1ncc(C(=O)NCCC2CCCN2C)o1 (stereo not drawn) [Example 415]
12 | 3400 | [2H]C([2H])([2H])NC(=O)c1nnc(NC(=O)C2CC2)cc1Nc1cccc(-c2cc(C(=O)N3CCC(N4CCN(CCO)CC4)CC3)n(C)n2)c1OC [Example 524]
13 | 170 | [2H]C([2H])([2H])NC(=O)c1nnc(Nc2cc(C)n(C)n2)cc1Nc1cc(F)cc(-c2cc(C(=O)N(C)C)n(C)n2)c1OC [Example 548]
14 | 160 | [2H]C([2H])([2H])NC(=O)c1nnc(NC(=O)C2CC2)cc1Nc1cccc(-c2ncc(C(=O)N3CCC3C)s2)c1OC (stereo not drawn) [Example 328]
15 | 300 | [2H]C([2H])([2H])NC(=O)c1nnc(NC(=O)C2CC2)cc1Nc1cccc(-c2cnn(CCNC(C)=O)n2)c1OC [Example 432]
16 | 670 | [2H]C([2H])([2H])NC(=O)c1nnc(Nc2cc(C(C)(C)O)ccn2)cc1Nc1cccc(-c2cn(CCN3CCOCC3)nn2)c1OC [Example 425]
17 | 560 | [2H]C([2H])([2H])NC(=O)c1nnc(Nc2ccc(OC)nn2)cc1Nc1cccc(-c2nc(C(=O)N(C)C)cs2)c1OC [Example 379]
18 | 270 | [2H]C([2H])([2H])NC(=O)c1nnc(Nc2ccc(OC)nn2)cc1Nc1cccc(-c2ncc(CNC(C)=O)s2)c1OC [Example 387]
19 | 60 | [2H]C([2H])([2H])NC(=O)c1nnc(Nc2ccc(OC)nn2)cc1Nc1cccc(-c2cnn(C)n2)c1OC [Example 451, 4-((2-methoxy-3-(2-methyl-2H-1,2,3-triazol-4-yl)phenyl)amino)-6-((6-methoxypyridazin-3-yl)amino)-N-(methyl-d3)pyridazine-3-carboxamide]
20 | 860 | [2H]C([2H])([2H])NC(=O)c1nnc(NC(=O)C2CC2)cc1Nc1cc(F)cc(-c2cc(C(=O)N3CCS(=O)(=O)CC3)n(C)n2)c1OC [Example 503]
21 | 40 | CCN(CC)C1CCC(NC(=O)c2cnc(-c3cccc(Nc4cc(NC(=O)C5CC5)nnc4C(N)=O)c3OC)s2)CC1 (stereo not drawn) [Example 397]

Second part, the compound before the results:

Row | SMILES | IC50 [nM]
22 | [2H]C([2H])([2H])NC(=O)c1nnc(NC(=O)C2CC2)cc1Nc1cccc(-c2ncc(C(=O)N[C@H]3CN4CCC3CC4)s2)c1OC [Example 327] | 150
23 | COc1c(Nc2cc(NC(=O)C3CC3)nnc2C(N)=O)cccc1-c1noc([C@@H](C)NS(C)(=O)=O)n1 [Example 47] | 140
24 | [2H]C([2H])([2H])NC(=O)c1nnc(NC(=O)C2CC2)cc1Nc1cccc(-c2nc(CN3CCN(C(=O)OC(C)(C)C)CC3)no2)c1OC [Example 135] | 2010
25 | [2H]C([2H])([2H])NC(=O)c1cnc(NC(=O)C2CC2)cc1Nc1cccc(-c2nc(C3(NC(C)=O)CC3)no2)c1OC [Example 214] | 390
26 | [2H]C([2H])([2H])NC(=O)c1nnc(NC(=O)C2CC2)cc1Nc1cccc(-c2ncc(CNC(=O)OC(C)(C)C)s2)c1OC [Example 259] | > 10000
27 | [2H]C([2H])([2H])NC(=O)c1nnc(NC(=O)C2CC2)cc1Nc1cccc(-c2ncc(C(=O)NCCN3CCOCC3)s2)c1OC [Example 321] | 30
28 | [2H]C([2H])([2H])NC(=O)c1nnc(NC(=O)C2CC2)cc1Nc1cccc(-c2nc(C3(NC(=O)CC#N)CC3)no2)c1OC [Example 151] | 1550
29 | COc1c(Nc2cc(NC(=O)C3CC3)nnc2C(N)=O)cccc1-c1noc(C(=O)NCCC2CCCN2C)n1 (stereo not drawn) [Example 37] | 18
30 | [2H]C([2H])([2H])NC(=O)c1nnc(NC(=O)C2CC2)cc1Nc1cc(F)cc(-c2ncc(C(=O)N(C)C)s2)c1OC [Example 277] | 240
31 | [2H]C([2H])([2H])NC(=O)c1nnc(NC(=O)C2CC2)cc1Nc1cccc(-c2ncc(C(=O)NCCC(N)=O)s2)c1OC [Example 311] | 200
32 | [2H]C([2H])([2H])NC(=O)c1cnc(NC(=O)C2CC2)cc1Nc1cccc(-c2noc(CCOC)n2)c1OC [Example 90] | 60
33 | [2H]C([2H])([2H])NC(=O)c1nnc(NC(=O)C2CC2)cc1Nc1cccc(-c2nc(CNC(=O)OC(C)(C)C)no2)c1OC [Example 142] | 5310
34 | [2H]C([2H])([2H])NC(=O)c1cnc(NC(=O)C2CC2)cc1Nc1cccc(-c2noc(COCC)n2)c1OC [Example 91] | 50
35 | [2H]C([2H])([2H])NC(=O)c1cnc(NC(=O)C2CC2)cc1Nc1cccc(-c2nc(C(C)(C)O)no2)c1OC [Example 218] | 390
36 | [2H]C([2H])([2H])NC(=O)c1nnc(NC(=O)C2CC2)cc1Nc1cccc(-c2ncc(C(=O)NCCNC(C)=O)s2)c1OC [Example 304] | 130
37 | [2H]C([2H])([2H])NC(=O)c1nnc(NC(=O)C2CC2)cc1Nc1cccc(-c2nc(CN(C)C(=O)COC)no2)c1OC [Example 170] | 570
38 | [2H]C([2H])([2H])NC(=O)c1nnc(NC(=O)C2CC2)cc1Nc1cccc(-c2ncc(C(=O)NCCOC)s2)c1OC [Example 271] | 90
39 | [2H]C([2H])([2H])NC(=O)c1nnc(NC(=O)C2CC2)cc1Nc1cccc(-n2cc(CNC)nn2)c1OC [Example 5] | 3300
40 | [2H]C([2H])([2H])NC(=O)c1nnc(NC(=O)C2CC2)cc1Nc1cccc(-c2ncc(C(C)O)s2)c1OC (stereo not drawn) [Example 258] | 130
41 | [2H]C([2H])([2H])NC(=O)c1cnc(NC(=O)C2CC2)cc1Nc1cccc(-c2nc(C3(N)CC3)no2)c1OC [Example 212] | 320
42 | [2H]C([2H])([2H])NC(=O)c1nnc(NC(=O)C2CC2)cc1Nc1cccc(-n2cc(CO)nn2)c1OC [Example 3] | 980
